{"source": "patent US20160303360A1", "about": "“Ultrasonic Transducer and Transdermal Delivery System” (Actuated Medical, Inc., priority 2015, published 2016)", "key": {"[1]": {"conditions": "pig, in vivo"}, "[2]": {"test": "in vivo", "conditions": "pig"}, "[3]": {"conditions": "human, in vivo, sc; cited from earlier work"}}}
{"substance": "enfuvirtide", "values": [{"measurement": "difference in TEWL between treatment site and control site", "setting": "[1]", "value": "not statistically different"}, {"measurement": "bioavailability", "setting": "[2]", "value": "~30", "unit": "%"}, {"measurement": "patients experiencing injection site reaction", "setting": "[3]", "value": "up to 98%"}]}
